According to patent US9453008B2, “Antithrombotic and antiatherosclerotic agent and method for producing same (variants)” (PROTON OOO, priority 2011, dated 2016):

What was measured:
[1] = system: pressor action of mesatonum; assay: Pressor effect of mesatonum in normotensive narcotized animals; format: in vivo; details: doses 0.01-1.0 mg/kg; mesatonum 5 μg/kg
Protocol: The effects of the compound of formula I on the pressor effects of noradrenaline (NA, 10-15 μg/kg), mesatonum (M, 5 μg/kg) and angiotensin (AI, 5 μg/kg) were studied on normotensive narcotized […]. Antihypertensive action of the compound of formula I was assessed relative to the pressor effects of the control administration of the aforementioned compounds.

[2] = General toxicity and tolerability on animals; format: in vivo
Protocol: Research of antiplatelet properties of the compound I, its effect on the activity of soluble guanylate cyclase and NO generation was performed by experimentation in vitro, its ability to exert hypotensive and antihypertensive action was studied on animals. General toxicity and tolerability of the compound of formula I were studied on animals.

[3] = system: platelet aggregation induced by arachidonic acid; assay: Platelet aggregation induced by arachidonic acid following peroral administration in rabbits; format: in vivo, rabbit
Protocol: FIG. 3 is a graph showing the changes in platelet aggregation, induced by arachidonic acid, following peroral administration of the compound I in rabbits (% compared to control).
Antiplatelet activity was assessed by the effect of the compound on platelet aggregation of rabbit blood plasma, induced by ADP (adenosine diphosphate) and arachidonic acid. Platelet aggregation was assessed by the change of optical density of plasma. Studies were performed using both intravenous administration, in comparison with sodium nitroprusside, and oral administration, in comparison with acetylsalicylic acid. Compound I was used in concentrations of 10^−3-10^−7 M (parenteral administration) and in 4-8 and 12 mg/kg doses (oral administration).
Using arachidonic acid (AA) as an aggregation inductor, the experiments were performed in conditions of oral administration. We consider such experimentation justified by the possibility of different routes of administration for the tested compound, not only intravenous one (unlike sodium nitroprusside).

[4] = target: T1, soluble guanylate cyclase of human platelets (Homo sapiens, UniProt Q02108+Q02153); assay: Specific activity of soluble guanylate cyclase of human platelets; format: biochemical; design: Activation: unit: % of initial activity
T1 construct: soluble guanylate cyclase of human platelets; from tissue; host or cells: human platelets
T1 sequence (Q02153 1-619): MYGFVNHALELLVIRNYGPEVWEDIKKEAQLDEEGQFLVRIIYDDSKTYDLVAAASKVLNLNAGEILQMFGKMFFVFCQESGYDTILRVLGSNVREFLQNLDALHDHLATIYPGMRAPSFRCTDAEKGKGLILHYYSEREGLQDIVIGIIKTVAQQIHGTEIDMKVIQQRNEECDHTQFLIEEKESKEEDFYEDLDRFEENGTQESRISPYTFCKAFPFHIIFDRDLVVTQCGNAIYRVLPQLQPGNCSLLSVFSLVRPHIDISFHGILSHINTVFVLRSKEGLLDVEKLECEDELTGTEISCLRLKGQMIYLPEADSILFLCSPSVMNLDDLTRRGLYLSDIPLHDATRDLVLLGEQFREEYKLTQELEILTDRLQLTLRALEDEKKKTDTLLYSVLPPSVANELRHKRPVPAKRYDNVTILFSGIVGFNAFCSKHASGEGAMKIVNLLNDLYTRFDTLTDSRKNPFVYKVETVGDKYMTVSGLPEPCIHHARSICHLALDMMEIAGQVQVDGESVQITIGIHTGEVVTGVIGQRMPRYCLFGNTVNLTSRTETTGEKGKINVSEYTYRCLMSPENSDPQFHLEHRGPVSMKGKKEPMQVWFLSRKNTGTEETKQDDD
T1 sequence (Q02108 1-690): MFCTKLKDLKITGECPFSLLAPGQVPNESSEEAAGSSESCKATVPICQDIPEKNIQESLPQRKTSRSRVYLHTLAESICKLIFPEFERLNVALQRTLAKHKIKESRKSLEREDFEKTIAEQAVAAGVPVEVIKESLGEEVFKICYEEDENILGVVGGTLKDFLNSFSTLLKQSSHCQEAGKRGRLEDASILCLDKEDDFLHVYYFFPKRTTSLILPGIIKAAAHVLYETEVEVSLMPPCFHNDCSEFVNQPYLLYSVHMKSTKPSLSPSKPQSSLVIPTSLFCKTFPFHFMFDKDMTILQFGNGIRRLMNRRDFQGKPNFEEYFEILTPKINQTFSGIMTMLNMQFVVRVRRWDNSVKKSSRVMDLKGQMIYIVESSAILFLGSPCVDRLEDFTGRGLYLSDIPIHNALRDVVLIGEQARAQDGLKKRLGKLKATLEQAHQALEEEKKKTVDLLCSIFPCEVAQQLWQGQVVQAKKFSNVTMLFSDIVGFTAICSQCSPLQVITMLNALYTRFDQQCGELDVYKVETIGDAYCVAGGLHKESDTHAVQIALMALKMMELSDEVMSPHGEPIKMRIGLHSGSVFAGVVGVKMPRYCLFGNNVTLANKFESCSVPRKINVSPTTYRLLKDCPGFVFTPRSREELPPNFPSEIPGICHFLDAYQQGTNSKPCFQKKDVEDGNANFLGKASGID

CN1CC(CO)O/C1=C(C#N)/C=C1/Nc2ccccc2C1=O (stereo not drawn) [Compound I, 2-[2-Cyano-2-[5-(hydroxymethyl)-3-methyl-1,3-oxazolidin-2-ylidene]ethylidene]indolin-3-one]
Effect on the pressor action of M (mesatonum) [1]: does not significantly affect
General toxicity and tolerability [2]: non-toxic, well tolerated
Neurotoxicity ([2]; relatively high doses): does not exhibit neurotoxicity
Effect on platelet aggregation (statistically significant) ([3]; after 2 hours (inductor not restated)): 32%
Effect on platelet aggregation ([3]; at 4 hour (inductor not restated)): 38%
Effect on platelet aggregation (as a tendency) ([3]; end of the first hour (inductor not restated)): up to 10%
Reduction of platelet aggregation induced by arachidonic acid ([3]; oral, rabbits, 1 hour after the administration): reduced by a third
Action of AA at the end of the observation period ([3]; oral, rabbits, 4 hours): comparable to the control
Inhibition of the action of the inductor (AA) ([3]; oral, rabbits, after 2 hour): by over two times
Duration of effect on AA-induced aggregation ([3]; per os): 2 to 4 h
Activation of soluble guanylate cyclase (in words) [4]: approaches that of L-arginine
average degree of activation of the enzyme ([4]; 0.1 mM concentration): 2.12 times
Activation, Mean M ± m ([4]; 0.1 mmol, mean of 5 samples): 212 ± 67
Specific activity of GC, Mean M ± m ([4]; 0.1 mmol, mean of 5 samples (initial 174 ± 33)): 342 ± 86 pmol cGMP/min/mg protein
Activation ([4]; 0.1 mmol, sample number 1): 446
Specific activity of GC ([4]; 0.1 mmol, sample number 1 (initial 133)): 593 pmol cGMP/min/mg protein
Activation ([4]; 0.1 mmol, sample number 2): 153
Specific activity of GC ([4]; 0.1 mmol, sample number 2 (initial 235)): 450 pmol cGMP/min/mg protein
Activation ([4]; 0.1 mmol, sample number 3): 146
Specific activity of GC ([4]; 0.1 mmol, sample number 3 (initial 100)): 146 pmol cGMP/min/mg protein
Activation ([4]; 0.1 mmol, sample number 4): 189
Specific activity of GC ([4]; 0.1 mmol, sample number 4 (initial 140)): 265 pmol cGMP/min/mg protein
Activation ([4]; 0.1 mmol, sample number 5): 122
Specific activity of GC ([4]; 0.1 mmol, sample number 5 (initial 211)): 256 pmol cGMP/min/mg protein
